From article PMC10490044, “Chromogenic Assay Is More Efficient in Identifying α-Amylase Inhibitory Properties of Anthocyanin-Rich Samples When Compared to the 3,5-Dinitrosalicylic Acid (DNS) Assay” (Molecules, 2023)
Converted amounts (≈) assume the structure as drawn. Read-outs that look alike come from different tables or passages of the source. One block for each molecule: values may come before it.

Columns and labels:
[1] = biological target: T1, pancreatic α-amylase (PPA) (Sus scrofa, UniProt P00690); test: Mode of inhibition / enzyme kinetics, Lineweaver–Burk plots with CNPG3; type: biochemical, porcine; settings: for mode of inhibition: CNPG3 0–5 mM, PPA 1 U/mL; for effect of inhibitor on Vmax: Lineweaver–Burk plot
T1 construct: purchased Sigma-Aldrich Co., Ltd., Dorset, UK
T1 sequence (P00690 16-511): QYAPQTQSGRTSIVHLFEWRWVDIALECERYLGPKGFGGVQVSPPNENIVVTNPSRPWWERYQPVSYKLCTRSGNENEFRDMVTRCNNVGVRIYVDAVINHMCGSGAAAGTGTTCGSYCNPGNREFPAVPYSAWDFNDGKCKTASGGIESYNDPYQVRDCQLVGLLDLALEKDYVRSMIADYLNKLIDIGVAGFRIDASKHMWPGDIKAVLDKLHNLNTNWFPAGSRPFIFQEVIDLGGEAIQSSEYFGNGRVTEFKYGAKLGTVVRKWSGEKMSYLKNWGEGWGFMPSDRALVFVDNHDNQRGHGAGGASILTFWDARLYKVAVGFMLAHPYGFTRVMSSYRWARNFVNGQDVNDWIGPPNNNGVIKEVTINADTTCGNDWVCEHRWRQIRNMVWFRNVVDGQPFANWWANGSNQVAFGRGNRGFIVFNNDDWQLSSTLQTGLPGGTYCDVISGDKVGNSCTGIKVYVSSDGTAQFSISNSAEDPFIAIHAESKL
Description: (§1) In preliminary experiments, the optimum enzyme and substrate concentrations for the assay were determined using different concentrations of α-amylase (0.25, 0.5, and 1 U/mL) and CNPG3 (0, 0.625, 1.25, 2.5, and 5 mM). The linearity of enzyme reaction was monitored over 20 min under optimized enzyme and substrate concentrations, and incubation time for enzymatic reaction was defined. […] The rate of enzymatic reaction (V) was calculated by dividing the change in absorbance (at 405 nm) over time. The Lineweaver–Burk double reciprocal plot was obtained by plotting the 1/V against reciprocal of substrate (1/[S]), and Km and Vmax were calculated.
A Lineweaver–Burk plot was constructed for every inhibitor, and Km and Vmax were calculated.
All experiments were conducted at least in triplicates and analysed using Prism software program v. 9 (GraphPad Software, San Diego, CA, USA). […] The IC50 values were then obtained from the respective curve. The mode of enzyme inhibition was graphically determined using the Lineweaver–Burk plot through nonlinear regression of all data sets at once using GraphPad Prism software.

[2] = biological target: T2, porcine pancreatic α-amylase (PPA) (Sus scrofa, UniProt P00690); test: DNS assay, amylose as substrate; type: biochemical; settings: concentrations up to 435 μM
T2 construct: purchased Sigma-Aldrich Co., Ltd., Dorset, UK
T2 sequence (P00690 16-511): T1 sequence (P00690 16-511)
Description: The samples were then placed in a water bath (100 °C, 10 min) to stop the enzyme reaction, subsequently transferred to ice, cooled down, and centrifuged at 4000× g for 5 min.
In order to remove potentially interfering compounds such as anthocyanins and other polyphenols that might react with the DNS reagent, solid phase reaction (SPE) was applied [20]. Briefly, Oasis MAX cartridges (30 mg) were preconditioned (1 mL water, 1 mL methanol) and then dried under vacuum for 10 min. The samples that underwent the enzymatic reaction above were applied to the cartridge, and the flow through was collected. Then, 1 mL DNS reagent was added to each SPE-purified flow through sample (500 μL), and samples were heated for 10 min at 100 °C to aid the reaction. Subsequently, samples were cooled down to room temperature, diluted to an appropriate absorbance range, transferred to wells in 96-well plates (2 × 250 µL per sample), and absorbance was recorded at 540 nm using Tecan Spark 10 M multimode microplate reader (TECAN, Mannedorf, Switzerland). Enzyme inhibition was calculated as a percentage of the 100% activity control (absence of inhibitor) and considering individual sample background (absence of enzyme and substrate).

[3] = biological target: T2, porcine pancreatic α-amylase (PPA); test: Direct chromogenic assay, CNPG3 as substrate; type: biochemical
Description: The inhibition of α-amylase activity was measured according to the method described by Kalita, Holm, LaBarbera, Petrash, and Jayanty with some modifications. […] This was followed by the addition of 50 µL of 2 mM CNPG3 substrate, diluted in phosphate buffer. The change in absorbance, indicating the release of p-nitrophenol as a reaction product, was recorded in 1 min intervals at 405 nm over a 10 min period (at 37 °C) using a Tecan Spark 10 M microplate reader. Reaction product scans (360–600 nm) were performed at the end of each experiment. Enzyme activity and inhibition (%) were calculated from the absorbance difference of each sample, in reference to the non-inhibited control.
as §1

pancreatic alpha-amylase = settings: cited from earlier work
human pancreatic amylase = biological target: human pancreatic amylase; set-up: method as in Xie et al. 28; settings: similar substrate; ref Xie et al. 28; cited from earlier work
α-amylase = biological target: T3, α-amylase (Sus scrofa, UniProt P00690); test: α-Amylase inhibition by anthocyanin metabolites (assay not stated); type: biochemical; settings: high concentrations of 1000 μg/mL
T3 construct: purchased Sigma-Aldrich Co., Ltd., Dorset, UK
T3 sequence (P00690 16-511): T1 sequence (P00690 16-511)

[4] = biological target: T2, porcine pancreatic α-amylase (PPA); settings: cited from earlier work; for mode of inhibition: DNS method; for IC50: ref Sui, Zhang, and Zhou 35
human salivary amylase = settings: reference not given; cited from earlier work
[5] = extracts per total anthocyanin content

- Km value (Michaelis constant) of substrate ([1]; no inhibitor): 4.4 mg/mL
Structure (SMILES): O=[N+]([O-])c1ccc(O[C@H]2O[C@H](CO)[C@@H](O[C@H]3O[C@H](CO)[C@@H](O[C@H]4O[C@H](CO)[C@@H](O)[C@H](O)[C@H]4O)[C@H](O)[C@H]3O)[C@H](O)[C@H]2O)c(Cl)c1 [CNPG3, 2-chloro-4 nitrophenyl α-D-maltotrioside]

- DNS Assay % inhibition [2]: 7%
- IC50 [3]: 491 µM
- IC50 [3, 5]: 491 µM
Structure (SMILES): Oc1cc(O)c2cc(O)c(-c3ccc(O)c(O)c3)[o+]c2c1 [Cyanidin, cyanidin]
- IC50, DNS assay (pancreatic alpha-amylase; ref 27): 109.2 µg/mL

- IC50 [3]: 414 µM
- Direct Chromogenic Assay IC50 [3, 5]: 414 ± 2.6 µg/mL
- mode of inhibition [1]: competitive inhibitor
- effect of inhibitor on Vmax [1]: remained constant
Structure (SMILES): OC[C@H]1O[C@@H](Oc2cc3c(O)cc(O)cc3[o+]c2-c2ccc(O)c(O)c2)[C@H](O)[C@@H](O)[C@H]1O [Cyanidin-3-O-galactopyranoside]

Structure (SMILES): C[C@H]1O[C@H](O[C@H]2[C@H](O)[C@@H](O)[C@@H](O[C@H]3[C@H](O)[C@@H](O)C(O)O[C@@H]3CO)O[C@@H]2CO)[C@H](O)[C@@H](O)[C@@H]1N[C@H]1C=C(CO)[C@@H](O)[C@H](O)[C@H]1O (stereo partly shown) [acarbose]
- mode of inhibition [1]: uncompetitive enzyme inhibition
- effect of inhibitor on Vmax [1]: decreased
- IC50, DNS assay (pancreatic alpha-amylase; ref 15): 11.7 µg/mL (≈ 18.1 µM)
- IC50, DNS assay (pancreatic alpha-amylase; ref 27): 77.5 µg/mL (≈ 120 µM)
- IC50, human pancreatic amylase (human pancreatic amylase): 0.47 µg/mL (≈ 0.728 µM)

- inhibition of α-amylase (α-amylase): unable to determine inhibition
Structure (SMILES): O=C(/C=C/c1ccc(O)c(O)c1)O[C@@H]1C[C@](O)(C(=O)O)C[C@@H](O)[C@H]1O [chlorogenic acid]

Structure (SMILES): OC[C@H]1O[C@@H](Oc2cc3c(O[C@@H]4O[C@H](CO)[C@@H](O)[C@H](O)[C@H]4O)cc(O)cc3[o+]c2-c2ccc(O)c(O)c2)[C@H](O)[C@@H](O)[C@@H]1O [cyanidin-3,5-diglucoside]
- IC50, DNS assay (pancreatic alpha-amylase; ref 27): > 600 µg/mL
- mode of inhibition [4]: competitively

Structure (SMILES): OC[C@H]1O[C@@H](Oc2cc3c(O)cc(O)cc3[o+]c2-c2ccc(O)c(O)c2)[C@H](O)[C@@H](O)[C@@H]1O [cyanidin-3-glucoside]
- IC50, DNS assay (pancreatic alpha-amylase; ref 27): 145.5 µg/mL
- IC50 (human salivary amylase): 180 ± 20 µM
- mode of inhibition [4]: competitively
- IC50 [4]: 24 ± 3 µM

Structure (SMILES): C[C@@H]1O[C@@H](OC[C@H]2O[C@@H](Oc3cc4c(O)cc(O)cc4[o+]c3-c3ccc(O)c(O)c3)[C@H](O)[C@@H](O)[C@@H]2O)[C@H](O)[C@H](O)[C@H]1O [cyanidin-3-rutinoside]
- IC50 (pancreatic alpha-amylase; ref 15, read-out: IC50, α-amylase): 24.4 µM
- mode of inhibition [4]: competitively

- inhibition of α-amylase (α-amylase): unable to determine inhibition
Structure (SMILES): O=C(O)c1cc(O)c(O)c(O)c1 [gallic acid]

Structure (SMILES): COc1cc(-c2[o+]c3cc(O)cc(O)c3cc2O[C@@H]2O[C@H](CO)[C@@H](O)[C@H](O)[C@H]2O)cc(OC)c1O [malvidin-3-glucoside]
- IC50 (human salivary amylase): 675 ± 73 µM

Structure (SMILES): COc1cc(-c2[o+]c3cc(O)cc(O)c3cc2O[C@@H]2O[C@H](CO)[C@@H](O)[C@H](O)[C@H]2O)ccc1O [peonidin-3-glucoside]
- mode of inhibition [4]: competitively
- IC50 [4]: 75 ± 7 µM

Structure (SMILES): O=C(O)c1ccc(O)c(O)c1 [protocatechuic acid]
- inhibition of α-amylase (α-amylase): unable to determine inhibition
